Patent US20260375151A1, “KETOREDUCTASE MUTANT AND USE THEREOF” (SOUTH CHINA UNIVERSITY OF TECHNOLOGY, priority 2023, published 2026)

Molecular target: T1, Novosphingobium aromaticivorans ketoreductase (NaKRED) mutant Y199A/N149L (parent SEQ ID NO. 2) (Novosphingobium aromaticivorans, UniProt A4XEP2, E216K/G141A/I221V/N149L/Y199A)
T1 construct: substrate 1a with NADH
T1 sequence (A4XEP2 1-259 E216K/G141A/I221V/N149L/Y199A): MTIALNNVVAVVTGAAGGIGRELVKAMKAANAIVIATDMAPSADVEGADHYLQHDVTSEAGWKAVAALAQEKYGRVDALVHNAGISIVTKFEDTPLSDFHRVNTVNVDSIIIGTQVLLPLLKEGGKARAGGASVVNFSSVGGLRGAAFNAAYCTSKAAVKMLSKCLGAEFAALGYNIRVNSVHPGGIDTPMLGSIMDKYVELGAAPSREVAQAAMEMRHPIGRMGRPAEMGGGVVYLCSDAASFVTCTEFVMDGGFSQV
Assay: Enzyme activity assay of purified Y199A/N149L mutant (change in absorbance at 340 nm, NADH)
Format: biochemical
Details: role: substrate; 0.5 mM substrate 1a; 1 mM NADH; 0.5 μM purified enzyme; 100 mM PBS pH 7.2
Method: The collected wet cells were resuspended in a reaction buffer in a ratio of 1 g wet cells to 15 mL of reaction buffer. The cells were lysed by ultrasonication in an ice bath using cycles of turn-on for 1 s and turn-off for 2 s for a total duration of 45 min. The lysate was centrifuged at 12,000 rpm and 4 °C for 15 min, and the supernatant was filtered through a 0.22 μm membrane for subsequent purification. The purification was performed by Ni-NTA affinity chromatography using a 5 mL of pre-packed column. The entire purification system was first equilibrated with an equilibration buffer, and the sample was loaded at a flow rate of 1 mL/min. Unbound impurity proteins were further removed with the equilibration buffer, and gradient elution was performed by using an elution buffer (500 mM NaCl, and 500 mM imidazole). A target protein was eluted at approximately 150 mM imidazole. The target protein was collected, and concentrated and desalted by using an ultrafiltration tube (50 kDa cutoff) to a final volume of 1 mL. A protein solution was aliquoted and stored at −80 °C for further use.
Therefore, the activity of the mutant was evaluated by monitoring the change in absorbance at 340 nm during the reaction. […] The change in absorbance was monitored over 5 min. […] A sample was prepared by filtration through a 0.22 μm membrane, and the formation of product was detected by HPLC.

CC(C)C(=O)CC[C@@H](C)[C@H]1CCC2C3C(CC[C@@]21C)[C@@]1(C)CC[C@@H](O)C[C@@H]1C[C@H]3O (stereo partly shown) [1a]
TON: 438 ± 2.9
